Assay results published in PubChem BioAssay (NCI).
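Step 1: Grow cells in 96-well plates. Step 2: Expose to compound for 48 hours at 5 concentrations. Step 3: Interpolate endpoints linearly; if unreached, use highest concentration. Here, GI50 denotes the concentration required for 50% inhibition of growth. At the TGI there is no net growth.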

What was measured:
Assay in all cases: NCI-60 cell line screen, 48 h
[1] = test system: EKVX NSCLC
[2] = test system: SR leukemia
[3] = test system: RPMI-8226 leukemia
[4] = test system: HCT-15 colon
[5] = test system: MOLT-4 leukemia
[6] = test system: HCT-116 colon
[7] = test system: UACC-257 melanoma
[8] = test system: SF-295 CNS
[9] = test system: CCRF-CEM leukemia
[10] = test system: LOX IMVI melanoma

Structure (SMILES) | TGI [1] | TGI [2] | TGI [3] | TGI [4] | TGI [5] | TGI [6] | TGI [7] | TGI [8] | TGI [9] | GI50 [2] | GI50 [3] | GI50 [10] | TGI [10] | GI50 [4] | GI50 [5] | GI50 [6] | GI50 [7] | GI50 [8] | GI50 [9] | GI50 [1]
O=C(/C=C\c1ccc(Cl)cc1Cl)c1cccs1 | 34.3 µM | > 100 µM | 12.8 µM | 34.4 µM | > 100 µM | 23.5 µM | 36.4 µM | 37.9 µM | 73.6 µM | – | – | – | – | – | – | – | – | – | – | –
Cn1cc(C2=C(c3cn(CCN)c4ccccc34)C(=O)NC2=O)c2ccccc21 | – | 17 µM | 15.5 µM | > 25 µM | 19.9 µM | > 25 µM | 15.2 µM | 16.7 µM | > 22.7 µM | 4.8 µM | 6.29 µM | 6.05 µM | > 22.8 µM | 6.79 µM | 6.48 µM | 5.57 µM | 6.17 µM | 5.54 µM | 6.05 µM | –
Nc1ccc(/C=N/Nc2ccnc3c(N)cccc23)c2cccnc12 | 3.34 µM | 0.153 µM | – | 2.9 µM | – | 1.85 µM | – | 3 µM | 2.31 µM | 0.0336 µM | – | – | – | 1.34 µM | – | 0.401 µM | – | 1.57 µM | 0.316 µM | 1.63 µM
CC1=C(C(=O)NCc2ccccc2)C(c2ccccc2[N+](=O)[O-])C(C(=O)NCc2ccccc2)=C(C)N1 | 30.1 µM | 35.8 µM | – | 22.4 µM | 50.5 µM | 19.7 µM | 29.4 µM | 25.4 µM | 44.7 µM | – | – | – | 21.3 µM | – | – | – | – | – | – | –
COc1ccc(/C(C)=N/OC(=O)c2c(-c3ccccc3Cl)noc2C)cc1CN1CCOCC1 | – | > 100 µM | 93.6 µM | > 100 µM | > 100 µM | 36.5 µM | 46.6 µM | 32.8 µM | > 100 µM | – | – | – | 28.1 µM | – | – | – | – | – | – | –
CC(=O)N=c1ccc2nc3c(cc(N)c4ccccc43)oc-2c1 | 4.54 µM | > 21.2 µM | 1.76 µM | 2.5 µM | 5.26 µM | 1.24 µM | 1.91 µM | – | 5.65 µM | 1.67 µM | 0.302 µM | – | – | 0.935 µM | 0.353 µM | 0.323 µM | 0.467 µM | – | 0.7 µM | 1.52 µM
COc1cc(C(=O)c2cc3c(cc2C)OCO3)cc(OC)c1OC | – | > 100 µM | > 67.3 µM | > 100 µM | > 100 µM | > 100 µM | > 100 µM | > 100 µM | > 100 µM | 0.0417 µM | 0.284 µM | 0.551 µM | > 100 µM | 0.0528 µM | 0.117 µM | 0.0682 µM | 91.7 µM | 0.102 µM | 0.0434 µM | –
